In patent US10123983B2, “DNA methyltransferases for the treatment and prevention of arthritis” (Washington University, priority 2015, dated 2018):
One block for each compound: values may come before it.

Legend:
[1] = system: primary articular chondrocytes; assay: Cytokine-induced chondrocyte hypertrophy measured by ALP activity; assay type: cell-based, mouse; conditions: cytokine treatment
Method: FIG. 24 depicts Dnmt3b gain-of-function attenuates IL-1β-induced chondrocyte hypertrophy. Primary ACs from 2 mo Dnmt3b GOF mice were treated with vehicle or doxycycline (10 μg/ml) for 24 hr. Medium without or with IL-1β (1 ng/ml) was added for 48 hr and ALP staining performed using NBT/BCIP substrate solution.
Hypertrophic characteristics, as measured by ALP activity, were induced in primary articular chondrocytes by treatment with either IL-1β or TNF-α. Dnmt3b GOF was induced by transfecting a plasmid expressing full-length Flag-tagged Dnmt3b cDNA. Western blot confirmed protein over-expression (data not shown). […] Similar results were shown in the TNF-α experiment (results not shown)

[2] = system: WT murine PACs; assay: Mitochondria stress test (Seahorse XF Extracellular Flux Analyzer) after succinate treatment; assay type: cell-based, mouse; conditions: 1 mM diethyl succinate, 48 h
Method: FIG. 13A, FIG. 13B, FIG. 13C, FIG. 13D, FIG. 13E, FIG. 13F, FIG. 13G, FIG. 13H, FIG. 13I, FIG. 13J, FIG. 13K, FIG. 13L, FIG. 13M and FIG. 13N depict graphs showing mitochondria function and cellular homeostasis in Dnmt3b LOF chondrocytes. Primary articular chondrocytes were isolated from 2 mo Dnmt3b^f/f mice and infected with Ad5-Cre (Dnmt3b LOF) or Ad5-GFP (Ctrl) for 48 h. (FIG. 13A, FIG. 13B, FIG. 13C) Mitochondrial respiration was measured by the Seahorse XF Extracellular Flux Analyzer. Basal respiration and maximal respiration, as measured by the oxygen consumption rate (OCR) are shown. (FIG. 13D, FIG. 13E, FIG. 13F) TCA metabolite (succinate, fumarate) and NADH analysis by HPLC-MS. (FIG. 13G, FIG. 13H, FIG. 13I) Mitochondrial metabolism analysis was measured in 2 mo WT cells treated with either 1 mM diethyl succinate or vehicle for 48 h by the Seahorse XF Extracellular Flux Analyzer. (FIG. 13J) Chondrocyte gene expression in response to succinate treatment was analyzed by qPCR. (FIG. 13K, FIG. 13L, FIG. 13M) Mitochondrial respiration analysis in BMP-2-treated 2 mo WT chondrocytes in the presence or absence antimycin A+rotenone for 48 h. […]
Metabolite analysis and mitochondria stress test. […] Metabolites were analyzed by LC-MS/MS as previously described^60. […] At the end of the assays, protein concentrations were measured for normalization.

[3] = system: WT murine PACs; assay: Chondrocyte gene expression in response to succinate treatment (qPCR); assay type: cell-based, mouse
Method: FIG. 13A, FIG. 13B, FIG. 13C, FIG. 13D, FIG. 13E, FIG. 13F, FIG. 13G, FIG. 13H, FIG. 13I, FIG. 13J, FIG. 13K, FIG. 13L, FIG. 13M and FIG. 13N depict graphs showing mitochondria function and cellular homeostasis in Dnmt3b LOF chondrocytes. Primary articular chondrocytes were isolated from 2 mo Dnmt3b^f/f mice and infected with Ad5-Cre (Dnmt3b LOF) or Ad5-GFP (Ctrl) for 48 h. (FIG. 13A, FIG. 13B, FIG. 13C) Mitochondrial respiration was measured by the Seahorse XF Extracellular Flux Analyzer. Basal respiration and maximal respiration, as measured by the oxygen consumption rate (OCR) are shown. (FIG. 13D, FIG. 13E, FIG. 13F) TCA metabolite (succinate, fumarate) and NADH analysis by HPLC-MS. (FIG. 13G, FIG. 13H, FIG. 13I) Mitochondrial metabolism analysis was measured in 2 mo WT cells treated with either 1 mM diethyl succinate or vehicle for 48 h by the Seahorse XF Extracellular Flux Analyzer. (FIG. 13J) Chondrocyte gene expression in response to succinate treatment was analyzed by qPCR. (FIG. 13K, FIG. 13L, FIG. 13M) Mitochondrial respiration analysis in BMP-2-treated 2 mo WT chondrocytes in the presence or absence antimycin A+rotenone for 48 h. (FIG. 13N) Analysis of chondrocyte gene expression in response to BMP-2 treatment+/−antimycin A+rotentone (0.1 μM).
Real-time PCR and western blot. RNA was isolated from ATDC-5 chondrocytes or primary articular chondrocytes using RNeasy Mini kit (Qiagen). cDNA synthesis and real-time RT-PCR was performed according to manufacturer's instructions. Western blot analyses were conducted on the protein of lysates from either ATDC-5 cells or primary (murine or human) articular chondrocytes. The following primary antibodies were used: pSmad1/5 (Cell Signaling technology Inc., 1:500), pSmad2 (Cell Signaling technology Inc., 1:1000), Smad1/5/8 (Cell Signaling technology Inc., 1:1000), Smad2 (Cell Signaling technology Inc., 1:1000), DNMT3A (LSBio, 1:1000), DNMT3B (LSBio, 1:1000), FLAG (Life technology, 1:1000) and β-actin (Sigma, 1:2000).

[4] = system: Primary articular chondrocytes from 2 mo WT mice; assay: Succinate concentration assay; assay type: cell-based, mouse; conditions: 1 mM diethyl succinate, 48 h
Method: FIG. 15 depicts a graph showing cellular succinate levels in murine chondrocytes. Primary articular chondrocytes from 2 mo WT mice were treated with 1 mM diethyl succinate or vehicle for 48 h.
Succinate concentration assay. Primary articular chondrocytes isolated from 2 mo WT mice were treated with vehicle or diethylsuccinate (1 mM) for 48 h. Intracellular succinate concentration was measured using the succinate colorimetric assay kit following the manufacturer's instruction (Sigma, #MAK184-1KT).

[5] = rodents, within the proposed dosage range; literature study (99); cited from earlier work
[6] = system: Dnmt3b LOF chondrocytes; assay: Vigabatrin treatment of Dnmt3b LOF primary articular chondrocytes, hypertrophic marker expression; assay type: cell-based, mouse
Method: FIG. 23A, FIG. 23B and FIG. 23C depict ablation of Dnmt3b in articular chondrocytes (ACs). Primary Acs from Dnmt3b^f/f mice were infected with Ad5-Cre or Ad-GFP for 48 hr and cultured for a further 48 hr with or without vigabatrin (500μM).
To determine if this effect is dependent upon increased Abat expression, experiments were performed using vigabatrin to inhibit Abat activity in articular chondrocytes. […] Work will comprehensively investigate the role of Abat in controlling both metabolism and hypertrophic/catabolic responses in articular chondrocytes, and define its role in the development of OA.

[7] = system: human primary articular chondrocytes; assay: IL-1β treatment of human primary articular chondrocytes, gene and protein expression; assay type: cell-based
Text: FIG. 1A, FIG. 1B, FIG. 1C, FIG. 1D, FIG. 1E, FIG. 1F, FIG. 1G, FIG. 1H, FIG. 1I, FIG. 1J, FIG. 1K, FIG. 1L and FIG. 1M depict images, graphs and an immunoblot showing Dnmt3b expression in murine and human knee joint cartilage. (FIG. 1A, FIG. 1B) Dnmt3a is not expressed in chondrocytes from 3 mo WT articular cartilage [(FIG. 1B) represents a magnified image of the boxed region in (FIG. 1A)]. (FIG. 1C) Dnmt3a expression in pancreas tissue (positive control). (FIG. 1D, FIG. 1E, FIG. 1F) Robust expression of Dnmt3b in chondrocytes of 3 mo WT articular cartilage and lower expression in underlying growth plate cartilage; [(FIG. 1E) represents a magnified image of the dashed boxed area of articular cartilage in (FIG. 1D); (FIG. 1F) represents a magnified image of the solid boxed area of growth plate cartilage in (FIG. 1D)]. Dnmt3b expression is also shown in: (FIG. 1G) 3 mo versus 27 mo WT murine knee articular cartilage; (FIG. 1H) 14 wk old murine articular cartilage following MLI surgery compared to cartilage from sham control knees; (FIG. 1I) 14 wk murine articular cartilage in mice fed a high fat diet (HFD) compared to controls (Ctrl) fed a normal diet. (FIG. 1J) Two representative images showing DNMT3B expression in human healthy articular cartilage or osteoarthritic cartilage tissue sections. (FIG. 1K) Reduced DNMT3B expression in human primary OA chondrocytes compared to healthy chondrocytes). […] All scale bars, 100 μm.
FIG. 3A and FIG. 3B depict graphs showing altered anabolic and catabolic gene expression in IL-1β-treated human primary chondrocytes. Reduced COL2A1 (FIG. 3A) and increased MMP13 (FIG. 3B) expression following IL-1β treatment (48 h) of human primary articular chondrocytes isolated from total knee replacement surgeries.
Full thickness sections of human articular cartilage were removed from the femoral condyles and tibial plateaus of specimens obtained following total knee replacement surgery, diced into 2 mm cubes and digested in sterile spinner flasks for 90 min at 37° C. in pronase digestion buffer [DMEM/F12 (Gibco); 5% FBS (Atlanta Biologicals), 2% penicillin/streptomycin (Gibco) and 0.4% pronase (Roche)]. Following washes in HBSS (Gibco), tissue was further digested in collagenase digestion buffer at 37° C. [DMEM/F12; 5% FBS; 2% penicillin/streptomycin; 0.035% collagenase P (Roche)] for 14-16 hr. Cells were collected, filtered through 70 μm cell strainers (VWR) and plated at a density of 100,000 cells/cm^2. After 24 hr, chondrocytes were treated with IL-1β (10 ng/ml; Gibco) for 48 hr. Total RNA was collected using the Total RNA prep kit (Norgen Biotek) and cDNA was synthesized using Superscript RT II (Life Technologies).
Real-time PCR and western blot. […]

[8] = system: Dnmt3b promoter; assay: Dnmt3b promoter luciferase assay; assay type: cell-based, mouse; conditions: ATDC-5 cells, IL-1β 1 ng/ml, 24 h, versus untreated control
Text: (§1) FIG. 4A, FIG. 4B, FIG. 4C, FIG. 4D, FIG. 4E and FIG. 4F depict sequences, graphs and a nucleic acid gel and immunoblot showing IL-1β regulation of Dnmt3b is mediated in part by NF-κB. (FIG. 4A) Sequence alignment and conservation of an NF-κB binding site (red) in the promoter region of the Dnmt3b gene of different species. Mouse—SEQ ID NO:1; Human—SEQ ID NO:2; Dog; SEQ ID NO:3; Horse—SEQ ID NO:4. […] Reduced luciferase activity is attenuated when ATDC-5 cells were transfected with a reporter plasmid containing a mutated NF-κB binding site ([…]; SEQ ID NO:5). […] (FIG. 4E, FIG. 4F) Dnmt3b mRNA and protein levels were reduced in murine WT primary articular chondrocytes (extracted from 3 mo murine knee joints) following IL-1β induction (48 h).
Dnmt3b promoter luciferase assay. ATDC-5 cells were transfected with a pGL4 luciferase plasmid containing cDNA encoding 1 kb of the murine Dnmt3b promoter using X-tremeGENE transfection reagents (Roche, #06366236001). A Dnmt3b promoter construct containing mutations in the predicted NFκB binding site was also transfected into an additional set of ATDC-5 cells. All transfected cells were then treated with IL-1β (1 ng/ml) for 24 h before performing the luciferase assay.

[9] = system: murine WT primary articular chondrocytes; assay: IL-1β induction of murine WT primary articular chondrocytes, Dnmt3b expression; assay type: cell-based, mouse; conditions: IL-1β induction 48 h
Text: as §1
Real-time PCR and western blot. RNA was isolated from ATDC-5 chondrocytes or primary articular chondrocytes using RNeasy Mini kit (Qiagen). cDNA synthesis and real-time RT-PCR was performed according to manufacturer's instructions. Western blot analyses were conducted on the protein of lysates from either ATDC-5 cells or primary (murine or human) articular chondrocytes. […]

[10] = Abat inhibition with vigabatrin

Compound: TNF-α
hypertrophic characteristics, as measured by ALP activity [1]: induced

Compound: CCOC(=O)CCC(=O)OCC [diethyl succinate]
basal respiration (OCR) [2]: increased
maximal respiration (OCR) [2]: increased
Col2a1 expression [3]: decreased
Mmp13 expression [3]: increase
Runx2 expression [3]: increase
cellular succinate levels [4]: Increased levels of cellular succinate

Compound: C=CC(N)CCC(=O)O (stereo not drawn) [vigabatrin]
side effects [5]: did not report any side effects
Col10a1 expression in Dnmt3b LOF chondrocytes [6, 10]: attenuates the increased expression
Mmp13 expression in Dnmt3b LOF chondrocytes [6, 10]: attenuates the increased expression
Runx2 expression in Dnmt3b LOF chondrocytes [6, 10]: attenuates the increased expression
catabolic responses in chondrocytes ([6]; in vitro administration): can block catabolic responses
hypertrophic gene expression induced by Dnmt3b LOF ([6]; vigabatrin 500μM, 48 hr, primary ACs from Dnmt3b f/f mice infected with Ad5-Cre): partially attenuated

luciferase expression of Dnmt3b promoter reporter [8]: Reduced luciferase expression
Compound: IL-1β: pro-inflammatory cytokine
hypertrophic characteristics, as measured by ALP activity [1]: induced
DNMT3B mRNA expression ([7]; IL-1β 10 ng/ml, 48 hr): decreased
DNMT3B protein expression ([7]; IL-1β 10 ng/ml, 48 hr): decreased
COL2A1 expression ([7]; IL-1β treatment 48 h): Reduced
MMP13 expression ([7]; IL-1β treatment 48 h): increased
Dnmt3b mRNA level [9]: reduced
Dnmt3b protein level [9]: reduced
